Test [1] concerns the target T1, human GIP receptor (hGIPR) (Homo sapiens, UniProt P48546).
T1 construct: expressed in transfected cells; crude membranes
T1 sequence (P48546 22-466): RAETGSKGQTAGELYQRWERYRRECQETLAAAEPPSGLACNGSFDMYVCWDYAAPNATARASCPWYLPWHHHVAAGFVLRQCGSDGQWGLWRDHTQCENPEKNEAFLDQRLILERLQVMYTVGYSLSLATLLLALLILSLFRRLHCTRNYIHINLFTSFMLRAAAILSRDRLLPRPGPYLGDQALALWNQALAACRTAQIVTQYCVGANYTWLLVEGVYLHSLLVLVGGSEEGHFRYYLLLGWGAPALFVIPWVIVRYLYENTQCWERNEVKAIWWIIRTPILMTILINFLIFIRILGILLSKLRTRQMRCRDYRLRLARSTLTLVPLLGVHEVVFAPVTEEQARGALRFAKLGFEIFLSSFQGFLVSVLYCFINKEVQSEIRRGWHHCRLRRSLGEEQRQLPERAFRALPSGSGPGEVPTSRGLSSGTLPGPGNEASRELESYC
The test can be described thus: [125I]-GIP binding, SPA with membranes of CHO cells expressing hGIPR. To be noted: human GIPR; geometric mean (SEM, n); read-out: Binding Affinity Ki, nM (SEM, n) hGIPR.

Test [2] deals with T2, hGIPR (Homo sapiens, UniProt P48546).
T2 construct: expressed in transfected cells
T2 sequence (P48546 22-466): T1 sequence (P48546 22-466)
Kind of test: Functional cAMP formation (HTRF) in HEK-293 clonal cells expressing hGIPR, 0.1% bovine casein, without or with 1.0% human serum albumin. The test is classed as cell-based. To be noted: for Emax: read-out: hGIPR Emax, % ± SEM; for EC50: read-out: hGIPR EC50, nM (SEM, n). A digest of the protocol:
(§1)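 Readings of the HTRF 665/620 nm ratio, which falls as cAMP rises, were converted to nM cAMP using a standard curve after 30 min peptide exposure at 37° C.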
In general terms: Cyclic AMP is a second messenger, typically raised through Gs and lowered through Gi signalling.

For test [3], the target named is hGLP-1R (Homo sapiens, UniProt P43220). The test can be described thus: Functional cAMP formation (HTRF) in HEK-293 clonal cells expressing hGLP-1R, 0.1% bovine casein, without or with 1.0% human serum albumin. The test is classed as cell-based. Also noted: expressed in transfected cells. To be noted: for EC50: geometric mean, read-out: hGLP-1R EC50, nM (SEM, n); for Emax: HEK293, cAMP, percent of maximal response to GLP-1(7-36)NH2, read-out: hGLP-1R Emax, % ± SEM. In outline:
as §1

Test [4] has as its target T3, hGCGR (Homo sapiens, UniProt P47871).
T3 construct: expressed in transfected cells
The test can be described thus: Functional cAMP formation (HTRF) in HEK-293 clonal cells expressing hGCGR, 0.1% bovine casein, without or with 1.0% human serum albumin. It is filed as cell-based. To be noted: read-out: hGCGR EC50, nM (SEM, n). A digest of the protocol:
as §1

The target in test [5] is T4, human GLP-1 receptor (hGLP-1R) (Homo sapiens, UniProt P43220).
T4 construct: expressed in transfected cells; crude membranes
T4 sequence (P43220 24-463): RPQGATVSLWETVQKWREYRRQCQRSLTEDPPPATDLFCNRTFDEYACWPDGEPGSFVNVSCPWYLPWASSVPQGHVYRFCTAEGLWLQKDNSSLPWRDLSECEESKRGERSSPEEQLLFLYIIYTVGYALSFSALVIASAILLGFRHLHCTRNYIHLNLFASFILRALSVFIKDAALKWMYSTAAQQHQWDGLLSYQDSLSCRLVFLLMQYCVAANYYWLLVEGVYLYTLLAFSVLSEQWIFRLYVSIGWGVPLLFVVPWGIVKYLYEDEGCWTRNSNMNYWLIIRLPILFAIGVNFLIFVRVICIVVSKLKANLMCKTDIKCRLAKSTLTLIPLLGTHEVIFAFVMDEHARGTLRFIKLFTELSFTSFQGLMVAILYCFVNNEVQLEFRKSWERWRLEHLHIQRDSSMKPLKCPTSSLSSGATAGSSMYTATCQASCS
Kind of test: [125I]-GLP-1 binding, SPA with membranes of HEK293 cells expressing hGLP-1R. To be noted: human GLP-1R; geometric mean (SEM, n); read-out: Binding Affinity Ki, nM (SEM, n) hGLP-1R.

[6] abbreviates: HEK293, cAMP, 37° C., 0.1% bovine casein and 1.0% human serum albumin, percent of maximal response to GIP(1-42)NH2.
Setting [7] is: cAMP, 37° C., 0.1% bovine casein (no human serum albumin), geometric mean.
[8] abbreviates: cAMP, 37° C., 0.1% bovine casein and 1.0% human serum albumin, geometric mean (SEM, n).
Setting [9] is: cAMP, 37° C., 0.1% bovine casein (no human serum albumin).
Setting [10] is: 0.1% bovine casein and 1.0% human serum albumin, 37° C., geometric mean.
The mark [11] stands for this setting: cAMP, incubated at 37° C., 0.1% bovine casein (no human serum albumin), geometric mean.
The mark [12] stands for this setting: 37° C., 0.1% bovine casein, arithmetic mean.

Each structure is given as a SMILES string. Read-outs that look alike come from different tables or passages of the source.

Chain of hGLP-1R (P43220 24-463): as above
T3 sequence (P47871 26-477): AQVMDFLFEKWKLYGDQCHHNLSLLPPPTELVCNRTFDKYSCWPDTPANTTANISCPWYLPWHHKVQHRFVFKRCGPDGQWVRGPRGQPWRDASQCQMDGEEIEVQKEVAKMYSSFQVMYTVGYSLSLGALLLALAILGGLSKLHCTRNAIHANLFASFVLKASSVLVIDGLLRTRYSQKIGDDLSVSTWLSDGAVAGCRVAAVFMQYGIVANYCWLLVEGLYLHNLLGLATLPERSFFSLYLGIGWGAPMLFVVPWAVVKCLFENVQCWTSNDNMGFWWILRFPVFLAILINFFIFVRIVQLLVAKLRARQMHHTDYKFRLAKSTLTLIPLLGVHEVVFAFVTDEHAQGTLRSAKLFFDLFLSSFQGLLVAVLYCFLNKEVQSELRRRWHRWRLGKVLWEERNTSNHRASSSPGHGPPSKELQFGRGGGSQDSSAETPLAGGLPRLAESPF

As for `CCCCCCCCCCCC(=O)N[C@@H](CCC(=O)NCCOCCOCC(=O)NCCOCCOCC(=O)NCCCC[C@H](NC(=O)[C@H](CCCN)NC(=O)[C@H](CC(=O)O)NC(=O)[C@H](CC(C)C)NC(=O)[C@](C)(CC(C)C)NC(=O)[C@@H](NC(=O)C(C)(C)NC(=O)[C@H](Cc1ccncc1)NC(=O)[C@H](CC(=O)O)NC(=O)[C@H](CO)NC(=O)[C@@H](NC(=O)[C@](C)(Cc1ccccc1F)NC(=O)[C@@H](NC(=O)CNC(=O)[C@H](CCC(=O)O)NC(=O)C(C)(C)NC(=O)[C@@H](N)Cc1ccc(O)cc1)[C@@H](C)O)[C@@H](C)O)[C@@H](C)CC)C(=O)N[C@@H](C)C(=O)N[C@@H](CCC(N)=O)C(=O)NC(C)(C)C(=O)N[C@@H](CCCN)C(=O)N[C@@H](Cc1ccccc1)C(=O)N[C@H](C(=O)N[C@H](CCC(=O)O)C(=O)N[C@@](C)(Cc1ccc(O)cc1)C(=O)N[C@@H](CC(C)C)C(=O)N[C@H](C(=O)N[C@@H](CCCCNC(=O)COCCOCCNC(=O)COCCOCCNC(=O)CC[C@H](NC(=O)CCCCCCCCCCC)C(=O)O)C(=O)NCC(=O)NCC(=O)N1CCC[C@H]1C(=O)N[C@@H](CO)C(=O)N[C@@H](CO)C(=O)NCC(=O)N[C@@H](C)C(=O)N1CCC[C@H]1C(=O)N1CCC[C@H]1C(=O)N1CCC[C@H]1C(=O)N[C@@H](CO)C(N)=O)[C@@H](C)CC)[C@@H](C)CC)C(=O)O` [Example 414], the Ki worked out at 0.0229 nM in test [1] and 0.194 nM in test [5]. For the same molecule, in test [2] (setting [6]), the Emax was 92.2%. In addition, the EC50 in test [2] (setting [7]) is 0.00961 nM; in test [2] (setting [8]), 0.274 nM; in test [3] (setting [9]), 0.119 nM; in test [4] (setting [7]) it was greater than 9950 nM; in test [4] (setting [8]), greater than 9950 nM.

With `CC[C@H](C)[C@H](NC(=O)[C@H](CC(C)C)NC(=O)[C@](C)(Cc1ccc(O)cc1)NC(=O)[C@@H](CCC(=O)O)NC(=O)[C@@H](NC(=O)[C@H](Cc1ccccc1)NC(=O)[C@H](CCC(=O)O)NC(=O)C(C)(C)NC(=O)[C@H](CCC(N)=O)NC(=O)[C@H](C)NC(=O)[C@H](CCCCNC(=O)COCCOCCNC(=O)COCCOCCNC(=O)CC[C@H](NC(=O)CCCc1ccc(I)cc1)C(=O)O)NC(=O)[C@H](CCCN)NC(=O)[C@H](CC(=O)O)NC(=O)[C@H](CC(C)C)NC(=O)[C@](C)(CC(C)C)NC(=O)[C@@H](NC(=O)[C@H](CO)NC(=O)[C@H](Cc1ccncc1)NC(=O)[C@H](CC(=O)O)NC(=O)[C@H](CO)NC(=O)[C@@H](NC(=O)[C@](C)(Cc1ccccc1F)NC(=O)[C@@H](NC(=O)CNC(=O)[C@H](CCC(=O)O)NC(=O)C(C)(C)NC(=O)[C@@H](N)Cc1ccc(O)cc1)[C@@H](C)O)[C@@H](C)O)[C@@H](C)CC)[C@@H](C)CC)C(=O)N[C@@H](CCC(=O)O)C(=O)NCC(=O)NCC(=O)N[C@@H](CCCCNC(=O)COCCOCCNC(=O)COCCOCCNC(=O)CC[C@H](NC(=O)CCCc1ccc(I)cc1)C(=O)O)C(=O)N[C@@H](CO)C(=O)N[C@@H](CO)C(=O)NCC(=O)N[C@@H](C)C(=O)N1CCC[C@H]1C(=O)N1CCC[C@H]1C(=O)N1CCC[C@H]1C(=O)N[C@@H](CO)C(N)=O` [Example 3], the Ki in test [1] stood at 0.0629 nM; in test [5] it was 0.471 nM. Also, the EC50 in test [2] (setting [10]) was 0.0971 nM; in test [2] (setting [11]), 0.0133 nM; in test [3] (0.1% bovine casein and 1.0% human serum albumin, 37° C.) it was 1.05 nM; in test [3] (cAMP, incubated at 37° C., 0.1% bovine casein (no human serum albumin)) it was 0.223 nM; in test [4] (setting [10]), greater than 9950 nM; in test [4] (setting [11]) it was greater than 9950 nM. For the same molecule, the Emax turned out to be 80% in test [2] (HEK293, 0.1% bovine casein and 1.0% human serum albumin, 37° C., percent of maximal response to GIP(1-42)NH2); 95.9 ± 2.95% in test [2] (HEK293, percent of maximal response to GIP(1-42)NH2, 37° C., 0.1% bovine casein, arithmetic mean).

As for `CCCCCCCCCCCC(=O)N[C@@H](CCC(=O)NCCOCCOCC(=O)NCCOCCOCC(=O)NCCCC[C@H](NC(=O)[C@H](CCCN)NC(=O)[C@H](CC(=O)O)NC(=O)[C@H](CC(C)C)NC(=O)[C@](C)(CC(C)C)NC(=O)[C@@H](NC(=O)C(C)(C)NC(=O)[C@H](Cc1ccncc1)NC(=O)[C@H](CC(=O)O)NC(=O)[C@H](CO)NC(=O)[C@@H](NC(=O)[C@](C)(Cc1ccccc1F)NC(=O)[C@@H](NC(=O)CNC(=O)[C@H](CCC(=O)O)NC(=O)C(C)(C)NC(=O)[C@@H](N)Cc1ccc(O)cc1)[C@@H](C)O)[C@@H](C)O)[C@@H](C)CC)C(=O)N[C@@H](C)C(=O)N[C@@H](CCC(N)=O)C(=O)NC(C)(C)C(=O)N[C@H](C(=O)N[C@@H](Cc1ccccc1)C(=O)N[C@H](C(=O)N[C@H](CCC(=O)O)C(=O)N[C@@](C)(Cc1ccc(O)cc1)C(=O)N[C@@H](CC(C)C)C(=O)N[C@H](C(=O)N[C@@H](CCCCNC(=O)COCCOCCNC(=O)COCCOCCNC(=O)CC[C@H](NC(=O)CCCCCCCCCCC)C(=O)O)C(=O)NCC(=O)NCC(=O)N1CCC[C@H]1C(=O)N[C@@H](CO)C(=O)N[C@@H](CO)C(=O)NCC(=O)N[C@@H](C)C(=O)N1CCC[C@H]1C(=O)N1CCC[C@H]1C(=O)N1CCC[C@H]1C(=O)N[C@@H](CO)C(N)=O)[C@@H](C)CC)[C@@H](C)CC)[C@@H](C)O)C(=O)O` [Example 419], the Ki was 0.0166 nM in test [1] and 0.265 nM in test [5]. Moreover, the Emax was 88.2% in test [2] (setting [6]); 97.3% in test [3] (37° C., 0.1% bovine casein and 1.0% human serum albumin); 113% in test [3] (setting [12]). The EC50 was 0.00958 nM in test [2] (setting [7]); 0.44 nM in test [2] (setting [8]); 0.132 nM in test [3] (setting [9]); greater than 9950 nM in test [4] (setting [7]); greater than 9950 nM in test [4] (setting [8]).

Turning to `CC[C@H](C)[C@H](NC(=O)[C@H](CC(C)C)NC(=O)[C@](C)(Cc1ccc(O)cc1)NC(=O)[C@H](CCCCNC(=O)CCOCCOCCOCCNC(=O)CC[C@H](NC(=O)CCCCCCCCCCCCC(=O)O)C(=O)O)NC(=O)[C@@H](NC(=O)[C@H](Cc1ccccc1)NC(=O)[C@H](CCCN)NC(=O)C(C)(C)NC(=O)[C@H](CCC(N)=O)NC(=O)[C@H](C)NC(=O)[C@H](CCC(N)=O)NC(=O)[C@H](CCCN)NC(=O)[C@H](CC(=O)O)NC(=O)[C@H](CC(C)C)NC(=O)[C@](C)(CC(C)C)NC(=O)[C@@H](NC(=O)C(C)(C)NC(=O)[C@H](Cc1ccncc1)NC(=O)[C@H](CC(=O)O)NC(=O)[C@H](CO)NC(=O)[C@@H](NC(=O)[C@](C)(Cc1ccccc1F)NC(=O)[C@@H](NC(=O)CNC(=O)[C@H](CCC(=O)O)NC(=O)C(C)(C)NC(=O)[C@@H](N)Cc1ccc(O)cc1)[C@@H](C)O)[C@@H](C)O)[C@@H](C)CC)[C@@H](C)CC)C(=O)N[C@@H](CCCCNC(=O)CCOCCOCCOCCNC(=O)CC[C@H](NC(=O)CCCCCCCCCCCCC(=O)O)C(=O)O)C(=O)NCC(=O)NCC(=O)N1CCC[C@H]1C(=O)N[C@@H](CO)C(=O)N[C@@H](CO)C(=O)NCC(=O)N[C@@H](C)C(=O)N1CCC[C@H]1C(=O)N1CCC[C@H]1C(=O)N1CCC[C@H]1C(=O)N[C@@H](CO)C(N)=O` [Example 458], the Ki is 0.0232 nM in test [1] and 0.266 nM in test [5]. In addition, the Emax is 93.1% in test [2] (setting [6]) and 111% in test [3] (setting [12]). Moreover, the EC50 in test [2] (setting [7]) is 0.0121 nM; in test [3] (setting [9]), 0.179 nM; in test [4] (setting [7]), greater than 9950 nM; in test [4] (setting [8]) it was greater than 9950 nM.

As a reminder, the Ki is the dissociation constant of the complex between target and ligand, obtained from inhibition or displacement. The Emax is the maximal effect, on the per cent scale that the assay sets. Usually EC50 stands for the concentration giving half of the maximal effect.
